Experimental data reported in ChEMBL document CHEMBL5291721, “A preclinical secondary pharmacology resource illuminates target-adverse drug reaction associations of marketed drugs” (Nat Commun, 2023).

How the values were obtained:
[1] = target: Gamma-aminobutyric acid receptor subunit alpha-1/alpha-2/beta-2/gamma-2 (Homo sapiens, UniProt P14867+P18507+P47869+P47870); type: protein-complex assay
Histamine H1 receptor = Histamine H1 receptor (Homo sapiens, UniProt P35367)
[2] = target: Vascular endothelial growth factor receptor 2 (Homo sapiens, UniProt P35968); type: functional
Sequence of Vascular endothelial growth factor receptor 2 (P35968 whole entry): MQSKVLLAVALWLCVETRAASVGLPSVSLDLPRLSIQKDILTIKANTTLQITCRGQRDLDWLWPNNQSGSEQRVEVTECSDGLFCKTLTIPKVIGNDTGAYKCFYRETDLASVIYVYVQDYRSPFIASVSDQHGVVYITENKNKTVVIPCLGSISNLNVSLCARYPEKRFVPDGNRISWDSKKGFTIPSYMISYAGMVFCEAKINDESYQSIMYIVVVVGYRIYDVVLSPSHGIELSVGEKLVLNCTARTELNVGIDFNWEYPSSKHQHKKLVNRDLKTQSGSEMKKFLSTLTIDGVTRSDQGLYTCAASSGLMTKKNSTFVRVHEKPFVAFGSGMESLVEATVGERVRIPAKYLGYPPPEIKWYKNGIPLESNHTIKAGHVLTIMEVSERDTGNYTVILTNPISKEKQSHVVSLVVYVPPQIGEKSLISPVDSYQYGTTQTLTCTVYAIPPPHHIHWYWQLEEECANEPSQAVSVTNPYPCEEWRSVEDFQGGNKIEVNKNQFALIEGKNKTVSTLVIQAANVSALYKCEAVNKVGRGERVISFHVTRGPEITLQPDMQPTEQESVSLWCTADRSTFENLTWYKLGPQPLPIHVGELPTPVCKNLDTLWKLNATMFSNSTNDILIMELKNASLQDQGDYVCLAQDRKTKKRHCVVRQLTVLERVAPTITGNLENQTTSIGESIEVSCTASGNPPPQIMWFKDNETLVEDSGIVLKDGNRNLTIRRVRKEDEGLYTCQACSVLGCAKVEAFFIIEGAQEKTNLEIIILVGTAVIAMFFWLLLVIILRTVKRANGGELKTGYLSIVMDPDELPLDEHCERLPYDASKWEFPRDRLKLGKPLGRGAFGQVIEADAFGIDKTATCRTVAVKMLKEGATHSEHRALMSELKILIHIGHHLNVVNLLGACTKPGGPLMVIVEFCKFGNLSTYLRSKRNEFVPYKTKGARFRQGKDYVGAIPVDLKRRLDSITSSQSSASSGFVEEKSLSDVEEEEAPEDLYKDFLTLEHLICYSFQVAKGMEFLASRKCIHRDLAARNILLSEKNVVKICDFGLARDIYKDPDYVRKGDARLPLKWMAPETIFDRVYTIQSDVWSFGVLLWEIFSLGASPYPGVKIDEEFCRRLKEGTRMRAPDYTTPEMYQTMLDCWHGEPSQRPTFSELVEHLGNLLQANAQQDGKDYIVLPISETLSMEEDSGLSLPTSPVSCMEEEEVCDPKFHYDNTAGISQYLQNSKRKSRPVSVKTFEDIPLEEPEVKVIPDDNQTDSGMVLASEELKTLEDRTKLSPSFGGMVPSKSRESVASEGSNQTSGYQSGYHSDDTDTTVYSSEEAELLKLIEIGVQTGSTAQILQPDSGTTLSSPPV

[3] = target: 3',5'-cyclic-AMP phosphodiesterase 4D (Homo sapiens, UniProt Q08499); type: functional
Sequence of 3',5'-cyclic-AMP phosphodiesterase 4D (Q08499 whole entry): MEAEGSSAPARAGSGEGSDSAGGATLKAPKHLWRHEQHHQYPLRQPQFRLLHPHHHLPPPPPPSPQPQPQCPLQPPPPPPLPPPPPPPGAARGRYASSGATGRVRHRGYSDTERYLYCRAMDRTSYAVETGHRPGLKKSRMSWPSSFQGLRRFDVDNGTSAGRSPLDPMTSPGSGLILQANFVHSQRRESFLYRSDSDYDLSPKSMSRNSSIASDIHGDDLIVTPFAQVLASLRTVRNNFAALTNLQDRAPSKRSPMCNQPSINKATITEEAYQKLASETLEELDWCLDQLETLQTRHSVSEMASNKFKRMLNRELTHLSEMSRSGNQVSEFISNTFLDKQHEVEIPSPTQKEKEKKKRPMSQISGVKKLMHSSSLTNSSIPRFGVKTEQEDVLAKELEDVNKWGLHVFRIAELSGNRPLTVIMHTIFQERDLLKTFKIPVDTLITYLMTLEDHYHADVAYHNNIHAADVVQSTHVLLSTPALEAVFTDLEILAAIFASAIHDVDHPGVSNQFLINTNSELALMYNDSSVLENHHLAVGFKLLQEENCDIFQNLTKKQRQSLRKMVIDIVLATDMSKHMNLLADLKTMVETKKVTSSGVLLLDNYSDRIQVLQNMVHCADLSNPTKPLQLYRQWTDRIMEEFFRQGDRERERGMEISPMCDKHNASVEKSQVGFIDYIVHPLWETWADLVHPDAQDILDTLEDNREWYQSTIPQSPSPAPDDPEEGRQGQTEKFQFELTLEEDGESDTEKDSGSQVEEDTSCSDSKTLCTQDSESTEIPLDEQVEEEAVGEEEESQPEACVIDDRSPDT

[4] = target: Sodium-dependent noradrenaline transporter (Homo sapiens, UniProt P23975)
[5] = target: T1, Amine oxidase [flavin-containing] A (Homo sapiens, UniProt P21397); type: functional
T1 sequence (P21397 whole entry): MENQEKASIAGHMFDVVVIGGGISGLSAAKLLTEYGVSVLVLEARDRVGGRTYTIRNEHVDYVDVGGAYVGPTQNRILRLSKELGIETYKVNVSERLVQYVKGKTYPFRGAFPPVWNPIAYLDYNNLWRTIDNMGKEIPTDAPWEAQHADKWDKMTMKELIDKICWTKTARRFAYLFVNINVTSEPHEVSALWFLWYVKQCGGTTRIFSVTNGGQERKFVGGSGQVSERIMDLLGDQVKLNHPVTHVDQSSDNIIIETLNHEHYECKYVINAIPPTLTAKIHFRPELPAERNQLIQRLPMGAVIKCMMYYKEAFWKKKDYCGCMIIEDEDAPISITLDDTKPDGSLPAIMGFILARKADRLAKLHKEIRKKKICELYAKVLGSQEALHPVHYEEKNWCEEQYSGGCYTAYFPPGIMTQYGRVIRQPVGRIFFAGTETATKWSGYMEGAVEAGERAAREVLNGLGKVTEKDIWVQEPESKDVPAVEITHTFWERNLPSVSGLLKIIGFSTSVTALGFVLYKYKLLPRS

[6] = target: T2, Alpha-2A adrenergic receptor (Homo sapiens, UniProt P08913); type: functional, cell-based
T2 sequence (P08913 whole entry): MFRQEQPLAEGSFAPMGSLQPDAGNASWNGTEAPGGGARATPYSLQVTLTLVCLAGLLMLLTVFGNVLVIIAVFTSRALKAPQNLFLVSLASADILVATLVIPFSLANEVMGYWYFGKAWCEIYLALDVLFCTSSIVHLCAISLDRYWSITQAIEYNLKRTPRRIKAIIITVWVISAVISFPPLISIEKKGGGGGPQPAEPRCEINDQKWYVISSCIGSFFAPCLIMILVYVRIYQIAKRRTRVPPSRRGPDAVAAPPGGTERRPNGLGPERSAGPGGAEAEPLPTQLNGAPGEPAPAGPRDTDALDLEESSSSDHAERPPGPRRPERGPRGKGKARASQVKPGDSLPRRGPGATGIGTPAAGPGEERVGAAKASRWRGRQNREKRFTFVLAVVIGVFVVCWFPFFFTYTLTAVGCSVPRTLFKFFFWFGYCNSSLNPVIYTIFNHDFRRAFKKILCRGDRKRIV

[7] = target: T3, Alpha-2B adrenergic receptor (Homo sapiens, UniProt P18089)
T3 sequence (P18089 whole entry): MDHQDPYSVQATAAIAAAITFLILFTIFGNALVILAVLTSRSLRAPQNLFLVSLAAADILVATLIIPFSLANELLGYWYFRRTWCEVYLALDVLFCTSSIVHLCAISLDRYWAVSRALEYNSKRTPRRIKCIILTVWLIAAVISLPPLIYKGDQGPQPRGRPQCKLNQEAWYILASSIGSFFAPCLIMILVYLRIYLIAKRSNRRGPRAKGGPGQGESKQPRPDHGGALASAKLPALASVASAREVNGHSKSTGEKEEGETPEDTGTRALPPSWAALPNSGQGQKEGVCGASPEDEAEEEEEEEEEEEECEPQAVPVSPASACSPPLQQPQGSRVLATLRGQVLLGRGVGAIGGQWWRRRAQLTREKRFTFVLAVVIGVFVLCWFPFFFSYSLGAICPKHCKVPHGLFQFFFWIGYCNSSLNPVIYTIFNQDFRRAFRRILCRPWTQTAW

Cannabinoid receptor 1 = Cannabinoid receptor 1 (Homo sapiens, UniProt P21554); type: functional, cell-based
[8] = target: Glutamate receptor ionotropic, NMDA 1 (Rattus norvegicus, UniProt P35439)
[9] = target: T4, 5-hydroxytryptamine receptor 3A (Homo sapiens, UniProt P46098); type: functional
T4 sequence (P46098 whole entry): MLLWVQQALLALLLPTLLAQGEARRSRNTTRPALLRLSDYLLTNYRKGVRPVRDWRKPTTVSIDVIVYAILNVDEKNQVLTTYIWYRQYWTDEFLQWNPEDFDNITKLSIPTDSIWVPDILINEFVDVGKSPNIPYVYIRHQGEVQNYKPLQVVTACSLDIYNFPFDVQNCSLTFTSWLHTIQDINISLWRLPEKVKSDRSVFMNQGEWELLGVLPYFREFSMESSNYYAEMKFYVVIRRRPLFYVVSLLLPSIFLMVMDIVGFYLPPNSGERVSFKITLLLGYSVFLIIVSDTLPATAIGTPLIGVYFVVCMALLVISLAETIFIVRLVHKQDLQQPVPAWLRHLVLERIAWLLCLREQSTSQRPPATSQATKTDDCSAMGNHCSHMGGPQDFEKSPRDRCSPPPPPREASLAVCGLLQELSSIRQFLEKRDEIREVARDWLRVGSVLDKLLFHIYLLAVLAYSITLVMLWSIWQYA

[10] = target: Delta-type opioid receptor (Homo sapiens, UniProt P41143)
Sequence of Delta-type opioid receptor (P41143 whole entry): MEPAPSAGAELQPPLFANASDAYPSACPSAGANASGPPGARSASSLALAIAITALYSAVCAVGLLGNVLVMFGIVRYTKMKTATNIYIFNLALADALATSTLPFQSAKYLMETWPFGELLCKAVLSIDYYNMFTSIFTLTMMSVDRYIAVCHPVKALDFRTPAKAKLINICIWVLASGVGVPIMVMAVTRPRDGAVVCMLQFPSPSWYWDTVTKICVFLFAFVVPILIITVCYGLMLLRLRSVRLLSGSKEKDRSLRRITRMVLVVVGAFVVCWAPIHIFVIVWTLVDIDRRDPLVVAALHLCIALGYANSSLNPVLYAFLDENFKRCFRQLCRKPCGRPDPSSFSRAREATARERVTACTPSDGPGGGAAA

[11] = target: Kappa-type opioid receptor (Homo sapiens, UniProt P41145)
Note: assay procedure not described here.

Sequence of Histamine H1 receptor (P35367 whole entry): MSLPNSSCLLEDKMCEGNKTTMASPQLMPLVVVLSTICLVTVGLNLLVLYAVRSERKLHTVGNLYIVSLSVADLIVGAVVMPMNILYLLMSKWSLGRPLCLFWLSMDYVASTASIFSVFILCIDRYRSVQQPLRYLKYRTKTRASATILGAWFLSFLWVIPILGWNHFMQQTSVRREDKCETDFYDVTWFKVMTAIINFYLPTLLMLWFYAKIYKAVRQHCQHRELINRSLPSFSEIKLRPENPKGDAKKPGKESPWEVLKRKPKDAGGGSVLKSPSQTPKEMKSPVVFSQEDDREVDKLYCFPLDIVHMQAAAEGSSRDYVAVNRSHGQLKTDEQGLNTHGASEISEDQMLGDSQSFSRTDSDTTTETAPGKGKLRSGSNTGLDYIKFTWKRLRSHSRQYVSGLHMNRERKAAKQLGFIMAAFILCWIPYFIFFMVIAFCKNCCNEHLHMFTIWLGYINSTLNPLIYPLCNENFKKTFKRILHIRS
Sequence of Gamma-aminobutyric acid receptor subunit alpha-1/alpha-2/beta-2/gamma-2 (P14867 whole entry): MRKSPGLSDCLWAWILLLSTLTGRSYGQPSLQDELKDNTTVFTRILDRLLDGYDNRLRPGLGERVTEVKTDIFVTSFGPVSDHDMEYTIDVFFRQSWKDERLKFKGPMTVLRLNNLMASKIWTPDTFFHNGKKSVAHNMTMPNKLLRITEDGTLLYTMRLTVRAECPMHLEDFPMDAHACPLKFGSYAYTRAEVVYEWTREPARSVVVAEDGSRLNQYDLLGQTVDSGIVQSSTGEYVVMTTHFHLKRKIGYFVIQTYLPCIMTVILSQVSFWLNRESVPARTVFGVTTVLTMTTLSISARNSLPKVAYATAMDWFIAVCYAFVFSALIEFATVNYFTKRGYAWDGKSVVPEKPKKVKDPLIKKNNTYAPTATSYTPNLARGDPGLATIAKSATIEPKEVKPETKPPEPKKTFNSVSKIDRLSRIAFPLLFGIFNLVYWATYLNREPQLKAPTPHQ
Sequence of Gamma-aminobutyric acid receptor subunit alpha-1/alpha-2/beta-2/gamma-2 (P47870 whole entry): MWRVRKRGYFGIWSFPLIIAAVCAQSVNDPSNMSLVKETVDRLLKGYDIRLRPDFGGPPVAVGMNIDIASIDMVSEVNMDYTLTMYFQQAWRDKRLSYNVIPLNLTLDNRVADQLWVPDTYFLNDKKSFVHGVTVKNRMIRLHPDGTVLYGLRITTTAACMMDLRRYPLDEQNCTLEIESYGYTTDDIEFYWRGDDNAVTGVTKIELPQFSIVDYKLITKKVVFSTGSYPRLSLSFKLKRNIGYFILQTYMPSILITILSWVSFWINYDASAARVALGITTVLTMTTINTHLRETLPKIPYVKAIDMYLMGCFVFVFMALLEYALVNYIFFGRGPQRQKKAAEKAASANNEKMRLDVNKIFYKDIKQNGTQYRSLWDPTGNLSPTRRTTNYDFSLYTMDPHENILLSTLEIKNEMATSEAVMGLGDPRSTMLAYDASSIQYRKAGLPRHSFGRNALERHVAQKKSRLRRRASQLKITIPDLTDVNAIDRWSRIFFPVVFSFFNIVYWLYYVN
Sequence of Gamma-aminobutyric acid receptor subunit alpha-1/alpha-2/beta-2/gamma-2 (P18507 whole entry): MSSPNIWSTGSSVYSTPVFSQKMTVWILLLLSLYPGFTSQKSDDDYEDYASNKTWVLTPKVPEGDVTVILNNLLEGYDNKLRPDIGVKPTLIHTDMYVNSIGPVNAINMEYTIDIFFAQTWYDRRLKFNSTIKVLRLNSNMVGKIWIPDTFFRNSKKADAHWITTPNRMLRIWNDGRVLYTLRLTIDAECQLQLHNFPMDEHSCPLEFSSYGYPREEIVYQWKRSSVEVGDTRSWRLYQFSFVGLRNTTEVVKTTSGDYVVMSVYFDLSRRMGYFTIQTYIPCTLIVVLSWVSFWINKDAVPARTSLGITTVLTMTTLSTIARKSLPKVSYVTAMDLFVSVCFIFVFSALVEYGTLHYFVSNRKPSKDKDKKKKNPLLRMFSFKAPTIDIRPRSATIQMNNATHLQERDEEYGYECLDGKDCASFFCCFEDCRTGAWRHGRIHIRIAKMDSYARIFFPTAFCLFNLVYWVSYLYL
Sequence of Gamma-aminobutyric acid receptor subunit alpha-1/alpha-2/beta-2/gamma-2 (P47869 whole entry): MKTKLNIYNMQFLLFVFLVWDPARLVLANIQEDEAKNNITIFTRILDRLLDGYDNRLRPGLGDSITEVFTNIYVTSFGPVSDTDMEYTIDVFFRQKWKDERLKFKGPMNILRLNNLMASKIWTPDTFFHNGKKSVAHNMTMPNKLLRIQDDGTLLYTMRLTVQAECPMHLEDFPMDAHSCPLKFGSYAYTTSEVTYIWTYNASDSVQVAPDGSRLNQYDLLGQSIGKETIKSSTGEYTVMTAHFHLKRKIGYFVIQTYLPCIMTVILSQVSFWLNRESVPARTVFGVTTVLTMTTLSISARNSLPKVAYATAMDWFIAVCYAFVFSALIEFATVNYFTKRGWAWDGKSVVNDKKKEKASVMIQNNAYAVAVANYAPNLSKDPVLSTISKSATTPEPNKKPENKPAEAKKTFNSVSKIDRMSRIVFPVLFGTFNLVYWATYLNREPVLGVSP

Compound | AC50 [1] [µM] | AC50 [2] [µM] | also measured
O=C(O)c1cccc(-c2noc(-c3ccccc3F)n2)c1 | > 30 | > 30 | AC50 (Histamine H1 receptor): > 10 µM; AC50 [3]: > 30 µM; AC50 [4]: > 30 µM; AC50 [5]: 5.3 µM
O=C(Nc1ccccc1)OCC(CN1CCCCC1)OC(=O)Nc1ccccc1 (stereo unspecified) [DIPERODON] | > 30 | > 30 | AC50 [6]: > 10 µM; AC50 [7]: > 10 µM; AC50 (Cannabinoid receptor 1): > 30 µM; AC50 [8]: > 10 µM; AC50 (Histamine H1 receptor): > 10 µM; AC50 [9]: > 10 µM; AC50 [10]: > 10 µM; AC50 [11]: 1.42 µM; AC50 [3]: > 10 µM; AC50 [4]: 1.1 µM; AC50 [5]: > 10 µM
CS(=O)(=O)Nc1cc2occ(NC=O)c(=O)c2cc1Oc1ccccc1 [IGURATIMOD] | > 30 | > 10 | AC50 (Histamine H1 receptor): > 30 µM; AC50 [10]: > 30 µM; AC50 [3]: 9.8 µM; AC50 [4]: > 30 µM; AC50 [5]: > 30 µM
CC(=O)OC(C)C[N+](C)(C)C (stereo unspecified) [METHACHOLINE] | > 30 | > 30 | –
COc1ccc2c(c1)OC(C)(C)C(c1ccccc1)C2c1ccc(OCCN2CCCC2)cc1 (stereo unspecified) [ORMELOXIFENE] | > 10 | > 30 | –
Oc1cccc2cccnc12 [OXYQUINOLINE] | > 30 | > 30 | –
Nc1nc2c(ncn2CCC(CO)CO)c(=O)[nH]1 [PENCICLOVIR] | > 30 | > 30 | –
CC[C@@H]1/C=C(\C)C[C@H](C)C[C@H](OC)[C@H]2O[C@@](O)(C(=O)C(=O)N3CCCC[C@H]3C(=O)O[C@H](/C(C)=C/[C@@H]3CC[C@H](Cl)[C@H](OC)C3)[C@H](C)[C@@H](O)CC1=O)[C@H](C)C[C@@H]2OC [PIMECROLIMUS] | > 10 | > 30 | –
CC(C(=O)O)c1ccc2c(c1)Cc1cccnc1O2 (stereo unspecified) [PRANOPROFEN] | > 30 | > 30 | –
CCO[C@@H](Cc1ccc(OCCn2c(C)ccc2-c2ccc(SC)cc2)cc1)C(=O)O [SAROGLITAZAR] | > 3 | > 30 | –
CN1CCC2=C(C1)c1ccccc1Cc1ccccc12 [SETIPTILINE] | > 30 | > 30 | –
COc1ccc(CCC(C)NCC(O)c2ccc(O)c([S+](C)[O-])c2)cc1 (stereo unspecified) [SULFINALOL] | > 30 | > 30 | –
C[C@@H]1O[C@@H](OC[C@H]2O[C@@H](Oc3c(-c4ccc(OCCO)c(OCCO)c4)oc4cc(OCCO)cc(O)c4c3=O)[C@H](O)[C@@H](O)[C@@H]2O)[C@H](O)[C@H](O)[C@H]1O [TROXERUTIN] | > 30 | > 30 | –
